Test [1] in a line: Binding affinity at rat imidazoline receptor I-2.
Test [2] concerns the target 5-hydroxytryptamine receptor 2A (Rattus norvegicus, UniProt P14842). In words: Binding affinity at 5-hydroxytryptamine 2A receptor of rat.
Test [3] concerns the target T1, Alpha-2B adrenergic receptor (Rattus norvegicus, UniProt P19328).
T1 sequence (P19328 whole entry): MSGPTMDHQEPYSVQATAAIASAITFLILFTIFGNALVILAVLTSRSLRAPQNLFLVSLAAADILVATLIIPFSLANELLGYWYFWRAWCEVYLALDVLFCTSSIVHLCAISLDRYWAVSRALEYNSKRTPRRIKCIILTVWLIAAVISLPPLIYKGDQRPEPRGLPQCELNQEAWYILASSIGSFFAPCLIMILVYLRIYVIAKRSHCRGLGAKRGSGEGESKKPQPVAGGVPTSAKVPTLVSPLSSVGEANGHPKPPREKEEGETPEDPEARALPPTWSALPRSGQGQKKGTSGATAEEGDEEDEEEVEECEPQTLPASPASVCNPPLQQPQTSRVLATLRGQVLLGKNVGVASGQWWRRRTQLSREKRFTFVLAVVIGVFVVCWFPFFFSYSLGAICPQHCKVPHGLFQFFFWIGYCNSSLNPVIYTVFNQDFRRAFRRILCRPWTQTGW
The test can be described thus: Binding affinity at alpha 2B adrenergic receptor of rat.

The target in test [4] is T2, Adrenergic receptor alpha-2 (Rattus norvegicus, UniProt P22086+P19328+P22909).
T2 sequence (P22086 whole entry): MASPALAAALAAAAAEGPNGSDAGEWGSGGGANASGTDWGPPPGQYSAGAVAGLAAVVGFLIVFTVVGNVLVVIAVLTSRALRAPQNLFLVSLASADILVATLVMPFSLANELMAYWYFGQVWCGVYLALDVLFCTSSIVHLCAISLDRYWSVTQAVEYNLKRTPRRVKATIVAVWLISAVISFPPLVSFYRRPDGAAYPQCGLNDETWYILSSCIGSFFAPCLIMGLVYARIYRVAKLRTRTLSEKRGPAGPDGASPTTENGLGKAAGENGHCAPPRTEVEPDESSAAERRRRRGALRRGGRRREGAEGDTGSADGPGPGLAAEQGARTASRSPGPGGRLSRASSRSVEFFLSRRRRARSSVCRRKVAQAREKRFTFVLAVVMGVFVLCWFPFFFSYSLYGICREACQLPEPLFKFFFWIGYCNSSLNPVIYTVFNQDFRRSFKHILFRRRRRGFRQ
T2 sequence (P19328 whole entry): T1 sequence (P19328 whole entry)
T2 sequence (P22909 whole entry): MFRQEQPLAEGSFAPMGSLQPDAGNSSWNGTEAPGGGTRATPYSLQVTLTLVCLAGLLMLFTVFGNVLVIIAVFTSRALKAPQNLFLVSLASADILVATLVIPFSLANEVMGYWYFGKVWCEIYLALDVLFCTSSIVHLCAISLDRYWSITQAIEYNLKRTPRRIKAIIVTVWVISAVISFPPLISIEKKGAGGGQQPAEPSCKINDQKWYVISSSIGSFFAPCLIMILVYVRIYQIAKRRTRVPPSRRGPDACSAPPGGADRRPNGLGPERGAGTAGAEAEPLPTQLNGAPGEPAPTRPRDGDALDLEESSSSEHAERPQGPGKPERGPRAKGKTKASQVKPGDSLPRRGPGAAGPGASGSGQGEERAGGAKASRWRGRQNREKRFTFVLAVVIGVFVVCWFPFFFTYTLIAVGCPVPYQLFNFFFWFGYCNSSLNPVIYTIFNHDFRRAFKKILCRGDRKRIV
In words: Binding affinity at alpha-2 adrenergic receptors of rat. It is filed as protein assay.

For test [5], the target named is T3, Alpha-2A adrenergic receptor (Rattus norvegicus, UniProt P22909).
T3 sequence (P22909 whole entry): T2 sequence (P22909 whole entry)
In words: Binding affinity at alpha-2 adrenergic receptor of rat.

26 compounds from ChEMBL document CHEMBL1149219, “Binding of beta-carbolines at imidazoline I2 receptors: a structure-affinity investigation” (Bioorg Med Chem Lett, 2004) can be followed below.

Sequence of 5-hydroxytryptamine receptor 2A (P14842 whole entry): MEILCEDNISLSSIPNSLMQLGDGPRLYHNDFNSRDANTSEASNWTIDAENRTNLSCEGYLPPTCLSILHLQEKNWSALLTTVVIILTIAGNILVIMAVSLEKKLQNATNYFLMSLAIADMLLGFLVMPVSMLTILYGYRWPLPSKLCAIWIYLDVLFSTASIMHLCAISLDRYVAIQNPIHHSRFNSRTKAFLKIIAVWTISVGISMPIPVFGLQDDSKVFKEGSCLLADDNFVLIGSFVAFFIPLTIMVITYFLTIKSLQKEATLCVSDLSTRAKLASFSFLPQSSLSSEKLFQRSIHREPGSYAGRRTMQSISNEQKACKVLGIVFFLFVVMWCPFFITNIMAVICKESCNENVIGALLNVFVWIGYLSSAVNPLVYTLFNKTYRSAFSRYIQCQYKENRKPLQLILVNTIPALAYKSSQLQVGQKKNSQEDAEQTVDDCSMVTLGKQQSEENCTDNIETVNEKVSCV

With `Cn1c2c(c3ccccc31)CCNC2`, the Ki (as a rule, a dissociation constant, usually derived from enzyme kinetics or from competition with a known ligand) in test [1] came out at 5.4 nM.
Take `COc1ccc2c3c([nH]c2c1)CNCC3`: the Ki in test [2] is more than 1000 nM; in test [3] it was 140 nM.
Turning to `COc1cccc2[nH]c3c(c12)CCN=C3`, the figures for the Ki in test [4] and in test [1] were 330 nM and 84 nM, respectively.
In test [1], `COc1ccc2c(c1)[nH]c1cnccc12` returned a Ki of 87 nM.
As for `COc1cccc2c3c([nH]c12)C=NCC3`, the Ki amounted to 5020 nM in test [4] and 160 nM in test [1].
As for `Brc1cccc2c3c([nH]c12)CNCC3`, the Ki in test [5] worked out at 460 nM; in test [1] it was 3.6 nM.
In the case of `NCc1c[nH]c2ccccc12`, the Ki in test [4] is 14700 nM; in test [1] it was 3440 nM.
In test [1], `COc1cc(Br)c2c3c([nH]c2c1)CNCC3` displayed a Ki of 1740 nM.
For `c1ccc2c3c([nH]c2c1)CCNC3`, the Ki in test [4] amounted to 600 nM; in test [1], 4.7 nM.
Turning to `Cn1c2c(c3ccccc31)CCNCC2` [PNU-22394], the Ki in test [4] turned out to be 415 nM; in test [1], 1030 nM.
The compound `COc1ccc2c(c1)[nH]c1c(C)nccc12` [HARMINE] had a Ki in test [1] of 49 nM.
`Brc1ccc2[nH]c3c(c2c1)CCN=C3`: the results for the Ki in test [4] and in test [1] were 5290 nM and 790 nM, respectively.
`COc1ccc2[nH]c3c(c2c1)CCNC3`: the Ki in test [4] is 7830 nM; in test [1] it was 1640 nM.
`COc1ccc2c3c([nH]c2c1)C=NCC3` [CGS-19281A]: the figures for the Ki in test [4] and in test [1] were more than 10000 nM and 18 nM, respectively.
Turning to `COc1cccc2[nH]c3c(c12)CCNC3`, the Ki was determined as 825 nM in test [4] and 300 nM in test [1].
As to `Brc1ccc2c3c([nH]c2c1)C=NCC3`, the Ki in test [4] turned out to be 10700 nM; in test [1] it was 400 nM.
On to `Brc1cccc2[nH]c3c(c12)CCNC3`, for which the Ki is 390 nM in test [4] and 5.4 nM in test [1].
Regarding `c1ccc2c3c([nH]c2c1)CNCC3` [TRYPTOLINE], in test [1], the Ki stood at 9.4 nM.
Regarding `C1=NCCc2c1[nH]c1ccccc21`, the inhibition constant (Ki) in test [4] came to 700 nM; in test [1], 7.3 nM.
`Brc1ccc2[nH]c3c(c2c1)CCNC3`: the Ki came to 11500 nM in test [4] and 2780 nM in test [1].
For `Brc1cccc2c3c([nH]c12)C=NCC3`, the figures for the Ki in test [4] and in test [1] were 815 nM and 17 nM, respectively.
The matching figures for `Brc1ccc2c3c([nH]c2c1)CNCC3`: 15500 nM and 1290 nM.
Take `Brc1cccc2[nH]c3c(c12)CCN=C3`: the Ki was 180 nM in test [2], 3160 nM in test [4] and 86 nM in test [1].
Consider `NCCc1c[nH]c2ccccc12` [TRYPTAMINE], for which the Ki in test [4] came to 19000 nM; in test [1], 5400 nM.
The matching figures for `COc1cccc2c3c([nH]c12)CNCC3`: 640 nM and 270 nM.
On to `COc1ccc2[nH]c3c(c2c1)CCN=C3`, for which the Ki in test [4] was found to be 2190 nM; in test [1], 480 nM.
